Data: article PMC8767159, “Multiparameter Optimization of Trypanocidal Cruzain Inhibitors With In Vivo Activity and Favorable Pharmacokinetics” (Frontiers in Pharmacology, 2022)
Read-outs that look alike come from different tables or passages of the source.

Legend:
[1] = tested on: T. cruzi intracellular amastigotes; test: Assay against T. cruzi intracellular amastigotes (Tulahuen lacZ strain in HFF-1 fibroblasts); type: cell-based, Trypanosoma cruzi; conditions: for IC50: Trypanosoma cruzi
Experimental: Biological assays against T. cruzi intracellular amastigotes were performed as reported previously using the T. cruzi Tulahuen strain, which is genetically engineered to express the E. coli β-galactosidase gene lacZ ([Buckner et al., 1996]). β-Galactosidase catalyzes a colorimetric reaction with chlorophenol red β-D-galactopyranoside (CPRG, Sigma Chemical Co., St. Louis, MO) as the substrate. The assays were conducted in 96-well tissue culture plates, and the compounds to be tested were prepared in 100% DMSO. Epimastigotes were maintained in liver infusion tryptone (LIT) enriched with 10% fetal calf serum (FCS), streptomycin, and penicillin at 28°C. Epimastigotes were converted to trypomastigotes by incubation in Grace’s insect medium (Sigma–Aldrich, St. Louis, MO) enriched with 10% FCS at 28°C. Human HFF-1 fibroblasts were seeded at 2 × 10^3/well in 80 μl of RPMI 1640 without phenol red and incubated overnight at 37°C and 5% CO2. Trypomastigotes were seeded at 1.0 × 10^4/well in 20 μl of RPMI 1640, and the plates were incubated at 37°C and 5% CO2. The next day, the synthesized compounds were added (50 μl) in 3-fold serial dilutions at concentrations ranging from 0.4 to 300 μM, and the plates were incubated at 37°C and 5% CO2. Each compound concentration was assayed in triplicate. After 120 h, 50 μl of chlorophenol red β-D-galactopyranoside (CPRG, Sigma–Aldrich) and IGEPAL CA-630 (Sigma–Aldrich) at a final concentration of 0.1% were added. The absorbance was measured at a wavelength of 570 nm in an automated microplate reader. The data were transferred to SigmaPlot 10.0 (Systat Software Inc., Erkrath, Germany) to determine the IC50 values. Benznidazole (BZ, Sigma–Aldrich) was used as a positive control, and untreated wells (100% parasite growth) were used as negative controls in all plates. All compounds were tested in three independent assays.

[2] = target: T1, cruzain (Trypanosoma cruzi, UniProt P25779); test: Cruzain enzyme inhibition assay (cleavage of fluorogenic substrate Z-FR-AMC); type: biochemical; conditions: for inhibition at 100 µM: compound 100 µM, mean of three measures; for Mechanism of cruzain inhibition (Lineweaver-Burk plots): eight substrate and four inhibitor concentrations
T1 construct: made in house; host or cells: Escherichia coli (strain M15)
How it was run: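 Recombinant C-terminally truncated cruzain, activated from pro-enzyme, assayed in 0.1 M sodium acetate pH 5.5 with 5 mM DTT and 0.01% Triton X-100 (also run at 0 and 0.1%) at 30°C. Z-FR-AMC cleavage followed 5 min (ex 355/em 460 nm); IC50 from initial rates versus DMSO, ≥6 concentrations in triplicate; single-dose at 100 μM.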

[3] = HFF-1, 120 h, Table 3, 120 h, mean ± SD of three assays
[4] = 1.5 nM cruzain, 5.0 µM Z-FR-AMC, mean ± SD of 2–3 assays, read-out: IC50 (µM) against cruzain

T1 sequence (P25779 123-337 limits assumed): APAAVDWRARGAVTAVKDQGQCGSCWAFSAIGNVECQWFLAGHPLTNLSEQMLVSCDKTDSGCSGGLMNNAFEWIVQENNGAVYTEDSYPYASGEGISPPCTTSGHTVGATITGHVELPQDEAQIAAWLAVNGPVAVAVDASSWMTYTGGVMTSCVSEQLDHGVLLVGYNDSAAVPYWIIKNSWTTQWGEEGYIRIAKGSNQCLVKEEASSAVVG

| Compound | IC50 [1, 3] [nM] | IC50 ([1]; HFF-1, Table 4, mean ± SD of three assays) [nM] | IC50 [2, 4] [µM] | % cruzain inhibition, 0% Triton ([2]; Table S1, 0% Triton X-100) [%] | % cruzain inhibition, 0.01% Triton ([2]; Table S1, 0.01% Triton X-100) [%] | % cruzain inhibition, 0.1% Triton ([2]; Table S1, 0.1% Triton X-100) [%] | IC50 ([2]; Table S2, substrate 2.5 µM, read-out: IC50 (µM) cruzain at [S] 2.5 µM) [µM] | IC50 ([2]; Table S2, substrate 5 µM, read-out: IC50 (µM) cruzain at [S] 5 µM) [µM] | IC50 ([2]; Table S2, substrate 10 µM, read-out: IC50 (µM) cruzain at [S] 10 µM) [µM] | IC50 ([2]; Table S2, substrate 15 µM, read-out: IC50 (µM) cruzain at [S] 15 µM) [µM] | IC50 ([2]; Table S2, substrate 20 µM, read-out: IC50 (µM) cruzain at [S] 20 µM) [µM] | IC50 ([2]; Table S2, substrate 40 µM, read-out: IC50 (µM) cruzain at [S] 40 µM) [µM] | inhibition at 100 µM [2] [%] | Mechanism of cruzain inhibition (Lineweaver-Burk plots) [2] | IC50 T. cruzi (μM) ([1]; Table 3, 120 h, mean ± SD of three assays) |
| --- | --- | --- | --- | --- | --- | --- | --- | --- | --- | --- | --- | --- | --- | --- | --- |
| O=C(COc1ccccc1)NCCc1nc2ccccc2n1CCOc1ccccc1 [Compound 20] | 2040 ± 600 | 2040 ± 600 | 1.04 ± 0.7 | 95.2 ± 0.6 | 95.9 ± 1.7 | 96.0 ± 1.1 | 0.5 ± 1.3 | 0.4 ± 1.2 | 1 ± 1.5 | 0.8 ± 1.7 | 0.3 | 0.5 ± 1.2 | 92 | noncompetitive | – |
| COc1ccc2cc(OCC(=O)NCCc3nc4ccccc4[nH]3)ccc2c1 [Compound 12] | 16600 ± 2400 | – | 2.3 ± 0.6 | – | – | – | – | – | – | – | – | – | 100 | – | – |
| Nc1cccc(OCC(=O)NCCc2nc3ccccc3[nH]2)c1 [Compound 9] | 5400 ± 900 | – | 18.2 ± 1.8 | – | – | – | – | – | – | – | – | – | 90 | – | – |
| Cn1c(CCNC(=O)COc2ccccc2)nc2ccccc21 [Compound 25] | ~100000 | – | 8.6 ± 1.7 | – | – | – | – | – | – | – | – | – | 87 | competitive | inactive |
| O=C(COc1ccc2ccc(O)cc2c1)NCCc1nc2ccccc2[nH]1 [Compound 11] | 2800 ± 600 | – | 2.7 ± 0.7 | – | – | – | – | – | – | – | – | – | 96 | – | – |
